According to the kinase profiling compilation of Christmann-Franck et al. (2016):
Values joined by “and” are separate entries in the source; they are usually repeats but may differ in a detail not shown here. Equal entries are not always repeated.

What was measured:
Experiment in all cases: radiometric filter-binding kinase assay, Kinase HotSpot
Settings in all cases: compound 0.5 µM; ATP 10 µM
STK39 (human) = STK39 (human) (UniProt Q9UEW8)
DMPK (human) = DMPK (human) (UniProt Q09013)
HCK (human) = HCK (human) (UniProt P08631)
Sequence of HCK (human) (P08631 whole entry, looked up): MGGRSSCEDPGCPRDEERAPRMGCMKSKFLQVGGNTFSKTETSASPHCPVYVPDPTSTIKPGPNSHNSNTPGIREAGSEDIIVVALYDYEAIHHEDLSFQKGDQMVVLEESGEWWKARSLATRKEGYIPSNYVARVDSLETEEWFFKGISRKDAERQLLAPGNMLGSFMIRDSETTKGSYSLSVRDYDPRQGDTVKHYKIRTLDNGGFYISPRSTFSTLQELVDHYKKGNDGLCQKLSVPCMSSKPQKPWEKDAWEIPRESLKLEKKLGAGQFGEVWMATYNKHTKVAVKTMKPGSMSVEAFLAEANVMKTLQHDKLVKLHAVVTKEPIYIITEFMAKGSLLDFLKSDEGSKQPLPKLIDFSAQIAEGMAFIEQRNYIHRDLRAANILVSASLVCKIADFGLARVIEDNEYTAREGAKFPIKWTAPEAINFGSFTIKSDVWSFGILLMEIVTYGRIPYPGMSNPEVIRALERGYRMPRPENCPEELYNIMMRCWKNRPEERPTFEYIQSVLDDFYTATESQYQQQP

DYRK1A (human) = DYRK1A (human) (UniProt Q13627)
PRKCE (human) = PRKCE (human) (UniProt Q02156)
PASK (human) = PASK (human) (UniProt Q96RG2)
Sequence of PASK (human) (Q96RG2 whole entry, looked up): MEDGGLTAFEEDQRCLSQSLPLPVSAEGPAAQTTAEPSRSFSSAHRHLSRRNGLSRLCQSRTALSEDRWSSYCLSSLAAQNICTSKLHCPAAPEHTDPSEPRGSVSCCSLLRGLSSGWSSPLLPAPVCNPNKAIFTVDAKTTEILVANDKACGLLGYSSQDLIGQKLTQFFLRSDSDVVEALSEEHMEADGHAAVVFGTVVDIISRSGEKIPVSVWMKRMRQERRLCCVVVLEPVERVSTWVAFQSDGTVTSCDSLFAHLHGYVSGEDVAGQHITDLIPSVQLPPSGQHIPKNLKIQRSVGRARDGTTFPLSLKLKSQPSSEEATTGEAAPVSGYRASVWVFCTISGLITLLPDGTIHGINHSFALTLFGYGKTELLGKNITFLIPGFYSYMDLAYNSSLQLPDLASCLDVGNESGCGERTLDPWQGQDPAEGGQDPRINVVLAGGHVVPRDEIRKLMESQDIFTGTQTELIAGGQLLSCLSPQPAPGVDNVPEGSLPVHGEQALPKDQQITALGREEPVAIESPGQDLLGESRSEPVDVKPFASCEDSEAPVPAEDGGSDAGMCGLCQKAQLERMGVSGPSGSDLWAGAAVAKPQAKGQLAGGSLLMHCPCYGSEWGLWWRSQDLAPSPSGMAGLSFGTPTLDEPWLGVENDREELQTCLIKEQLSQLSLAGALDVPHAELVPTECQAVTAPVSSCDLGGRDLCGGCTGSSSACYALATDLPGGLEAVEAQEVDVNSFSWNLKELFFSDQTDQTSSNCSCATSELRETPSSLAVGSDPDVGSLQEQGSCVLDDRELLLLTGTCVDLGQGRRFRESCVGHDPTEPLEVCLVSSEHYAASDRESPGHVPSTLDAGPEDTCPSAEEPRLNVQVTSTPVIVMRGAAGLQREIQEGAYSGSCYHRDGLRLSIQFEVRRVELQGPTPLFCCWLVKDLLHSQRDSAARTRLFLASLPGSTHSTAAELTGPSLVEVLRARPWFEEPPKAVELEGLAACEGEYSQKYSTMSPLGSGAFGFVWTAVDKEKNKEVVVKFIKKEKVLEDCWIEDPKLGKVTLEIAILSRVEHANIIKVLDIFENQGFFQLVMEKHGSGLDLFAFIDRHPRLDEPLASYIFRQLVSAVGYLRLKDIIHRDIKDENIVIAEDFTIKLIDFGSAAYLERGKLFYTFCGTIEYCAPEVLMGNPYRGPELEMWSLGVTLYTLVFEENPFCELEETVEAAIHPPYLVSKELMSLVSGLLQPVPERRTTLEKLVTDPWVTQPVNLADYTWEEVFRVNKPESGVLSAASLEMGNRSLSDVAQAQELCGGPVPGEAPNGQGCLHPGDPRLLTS

NTRK1 (human) = NTRK1 (human) (UniProt P04629)
STK16 (human) = STK16 (human) (UniProt O75716)
CDK3 CCNE1 (human) = CDK3 CCNE1 (human) (UniProt Q00526+P24864)
GRK6 (human) = GRK6 (human) (UniProt P43250)
CAMKK2 (human) = CAMKK2 (human) (UniProt Q96RR4)
ABL1 (human) = ABL1 (human) (UniProt P00519)
EPHB3 (human) = EPHB3 (human) (UniProt P54753)
CDC42BPA (human) = CDC42BPA (human) (UniProt Q5VT25)
FLT1 (human) = FLT1 (human) (UniProt P17948)
MAP3K11 (human) = MAP3K11 (human) (UniProt Q16584)
Sequence of MAP3K11 (human) (Q16584 whole entry, looked up): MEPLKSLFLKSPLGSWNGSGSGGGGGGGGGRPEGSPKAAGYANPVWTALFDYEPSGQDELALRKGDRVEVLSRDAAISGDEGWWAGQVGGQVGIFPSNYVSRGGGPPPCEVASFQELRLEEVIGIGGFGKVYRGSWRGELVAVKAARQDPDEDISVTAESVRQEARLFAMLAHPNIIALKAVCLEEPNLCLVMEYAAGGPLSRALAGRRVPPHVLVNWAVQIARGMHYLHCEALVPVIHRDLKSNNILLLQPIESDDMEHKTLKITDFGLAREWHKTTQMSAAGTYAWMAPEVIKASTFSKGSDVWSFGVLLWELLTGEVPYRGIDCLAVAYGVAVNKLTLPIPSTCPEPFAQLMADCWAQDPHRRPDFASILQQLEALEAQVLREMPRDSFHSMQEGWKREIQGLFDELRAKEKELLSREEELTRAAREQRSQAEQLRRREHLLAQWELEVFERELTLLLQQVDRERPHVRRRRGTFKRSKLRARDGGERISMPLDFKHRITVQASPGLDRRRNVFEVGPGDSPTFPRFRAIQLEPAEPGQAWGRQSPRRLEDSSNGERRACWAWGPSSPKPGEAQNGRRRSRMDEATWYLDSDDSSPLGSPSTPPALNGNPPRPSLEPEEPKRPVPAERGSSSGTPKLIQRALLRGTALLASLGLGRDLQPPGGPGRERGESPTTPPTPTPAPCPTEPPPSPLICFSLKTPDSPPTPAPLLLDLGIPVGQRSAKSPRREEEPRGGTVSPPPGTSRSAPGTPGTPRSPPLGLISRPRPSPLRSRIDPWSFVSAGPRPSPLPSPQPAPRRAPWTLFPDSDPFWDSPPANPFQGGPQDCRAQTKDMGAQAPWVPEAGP

[1] = biological target: JAK1 JH1 catalytic (human) (UniProt P23458)
NUAK1 (human) = NUAK1 (human) (UniProt O60285)
CDK5 CDK5R1 p25 (human) = CDK5 CDK5R1 p25 (human) (UniProt Q00535+Q15078)
MARK2 (human) = MARK2 (human) (UniProt Q7KZI7)
SLK (human) = SLK (human) (UniProt Q9H2G2)
RAF1 (human) = RAF1 (human) (UniProt P04049)
NEK7 (human) = NEK7 (human) (UniProt Q8TDX7)
KDR (human) = KDR (human) (UniProt P35968)
PRKG1 (human) = PRKG1 (human) (UniProt Q13976)
EPHB1 (human) = EPHB1 (human) (UniProt P54762)
MAPK14 (human) = MAPK14 (human) (UniProt Q16539)
SGK2 (human) = SGK2 (human) (UniProt Q9HBY8)
PAK2 (human) = PAK2 (human) (UniProt Q13177)
BRSK2 (human) = BRSK2 (human) (UniProt Q8IWQ3)
Sequence of BRSK2 (human) (Q8IWQ3 whole entry, looked up): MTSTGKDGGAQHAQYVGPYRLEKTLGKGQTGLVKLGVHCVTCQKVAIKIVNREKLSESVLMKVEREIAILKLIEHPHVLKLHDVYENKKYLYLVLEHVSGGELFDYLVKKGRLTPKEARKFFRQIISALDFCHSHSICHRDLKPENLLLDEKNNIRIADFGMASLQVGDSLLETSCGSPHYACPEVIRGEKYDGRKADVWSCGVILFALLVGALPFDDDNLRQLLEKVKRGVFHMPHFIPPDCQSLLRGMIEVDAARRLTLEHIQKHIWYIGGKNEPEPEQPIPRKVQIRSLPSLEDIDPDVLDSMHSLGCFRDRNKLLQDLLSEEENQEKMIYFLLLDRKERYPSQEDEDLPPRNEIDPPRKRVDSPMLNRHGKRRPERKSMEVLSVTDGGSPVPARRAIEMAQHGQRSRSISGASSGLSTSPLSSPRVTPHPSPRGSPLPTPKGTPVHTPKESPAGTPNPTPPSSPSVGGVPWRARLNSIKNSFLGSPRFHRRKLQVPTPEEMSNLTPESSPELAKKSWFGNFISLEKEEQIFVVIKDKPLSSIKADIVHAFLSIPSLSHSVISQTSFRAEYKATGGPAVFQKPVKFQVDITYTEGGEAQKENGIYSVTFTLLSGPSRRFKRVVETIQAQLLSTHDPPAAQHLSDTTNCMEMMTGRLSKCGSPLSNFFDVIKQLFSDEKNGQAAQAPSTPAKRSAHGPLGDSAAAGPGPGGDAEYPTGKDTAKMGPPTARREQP

SRPK3 (human) = SRPK3 (human) (UniProt Q9UPE1)
Sequence of SRPK3 (human) (Q9UPE1 whole entry, looked up): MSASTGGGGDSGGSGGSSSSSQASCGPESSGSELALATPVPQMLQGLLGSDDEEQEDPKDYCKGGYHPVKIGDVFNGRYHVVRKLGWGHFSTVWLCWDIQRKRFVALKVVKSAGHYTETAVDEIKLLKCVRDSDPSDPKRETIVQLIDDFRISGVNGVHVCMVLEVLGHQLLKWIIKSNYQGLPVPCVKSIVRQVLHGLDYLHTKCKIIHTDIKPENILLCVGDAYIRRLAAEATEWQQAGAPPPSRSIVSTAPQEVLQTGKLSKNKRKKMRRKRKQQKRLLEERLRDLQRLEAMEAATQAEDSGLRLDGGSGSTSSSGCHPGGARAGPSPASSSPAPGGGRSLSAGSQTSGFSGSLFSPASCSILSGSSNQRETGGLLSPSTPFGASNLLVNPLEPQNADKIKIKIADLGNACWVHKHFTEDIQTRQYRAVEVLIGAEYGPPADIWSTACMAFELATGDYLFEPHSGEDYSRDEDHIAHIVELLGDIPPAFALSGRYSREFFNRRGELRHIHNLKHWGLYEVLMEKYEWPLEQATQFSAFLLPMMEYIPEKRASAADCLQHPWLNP

MAPK12 (human) = MAPK12 (human) (UniProt P53778)
AURKA (human) = AURKA (human) (UniProt O14965)
Sequence of AURKA (human) (O14965 whole entry, looked up): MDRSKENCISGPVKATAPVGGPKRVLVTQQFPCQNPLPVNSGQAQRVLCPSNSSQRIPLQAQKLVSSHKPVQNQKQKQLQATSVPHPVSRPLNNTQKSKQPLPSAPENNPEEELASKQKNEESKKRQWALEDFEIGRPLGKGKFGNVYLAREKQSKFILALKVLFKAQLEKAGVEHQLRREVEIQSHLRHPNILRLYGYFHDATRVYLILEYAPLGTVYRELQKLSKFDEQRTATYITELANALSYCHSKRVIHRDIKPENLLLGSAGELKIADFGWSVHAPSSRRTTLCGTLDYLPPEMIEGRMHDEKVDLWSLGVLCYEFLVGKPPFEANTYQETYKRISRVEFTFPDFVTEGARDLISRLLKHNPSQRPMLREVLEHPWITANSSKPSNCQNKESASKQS

PHKG2 (human) = PHKG2 (human) (UniProt P15735)
FGFR2 (human) = FGFR2 (human) (UniProt P21802)
ALK (human) = ALK (human) (UniProt Q9UM73)
FGFR3 (human) = FGFR3 (human) (UniProt P22607)
WNK2 (human) = WNK2 (human) (UniProt Q9Y3S1)
CAMK1G (human) = CAMK1G (human) (UniProt Q96NX5)
WEE1 (human) = WEE1 (human) (UniProt P30291)
AKT1 (human) = AKT1 (human) (UniProt P31749)
Sequence of AKT1 (human) (P31749 whole entry, looked up): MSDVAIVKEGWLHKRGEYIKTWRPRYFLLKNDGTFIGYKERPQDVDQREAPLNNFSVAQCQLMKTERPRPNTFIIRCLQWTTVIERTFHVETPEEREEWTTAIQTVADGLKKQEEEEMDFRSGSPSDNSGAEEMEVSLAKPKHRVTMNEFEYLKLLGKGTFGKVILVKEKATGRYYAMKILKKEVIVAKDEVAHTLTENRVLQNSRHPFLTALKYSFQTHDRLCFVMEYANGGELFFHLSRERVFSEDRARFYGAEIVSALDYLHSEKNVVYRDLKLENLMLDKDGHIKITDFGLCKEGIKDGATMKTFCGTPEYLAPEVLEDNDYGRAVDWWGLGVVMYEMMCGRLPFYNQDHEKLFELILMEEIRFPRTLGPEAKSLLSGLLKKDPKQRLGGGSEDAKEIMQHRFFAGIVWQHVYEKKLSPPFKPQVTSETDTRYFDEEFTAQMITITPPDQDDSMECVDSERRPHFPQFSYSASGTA

TTK (human) = TTK (human) (UniProt P33981)

In the case of `c1ccc(-c2cnc(Nc3ccc(OCCN4CCCC4)cc3)s2)cc1`, the residual activity (STK39 (human)) is reported as 75.4%, the residual activity (DMPK (human)) is reported as 110% and the residual activity (HCK (human)) is reported as 98.6%. The residual activity (DYRK1A (human)) was 94.2%, the residual activity (PRKCE (human)) was 90.5% and the residual activity (PASK (human)) was 96.4%. For the same compound, the residual activity (NTRK1 (human)) was 54.1%, the residual activity (STK16 (human)) was 92% and the residual activity (CDK3 CCNE1 (human)) was 97.6%. For the same compound, the residual activity (GRK6 (human)) was 96.1%, the residual activity (CAMKK2 (human)) was 89.4% and the residual activity (ABL1 (human)) was 63.3%. The residual activity (EPHB3 (human)) was 93.3%, the residual activity (CDC42BPA (human)) was 91% and the residual activity (FLT1 (human)) was 74.5%. For the same compound, the residual activity (MAP3K11 (human)) was 84.4%, the residual activity [1] was 101% and the residual activity (NUAK1 (human)) was 56.4%. The residual activity (CDK5 CDK5R1 p25 (human)) was 80.7%, the residual activity (MARK2 (human)) was 88% and the residual activity (SLK (human)) was 96.7%. The residual activity (RAF1 (human)) was 99%, the residual activity (NEK7 (human)) was 100% and the residual activity (KDR (human)) was 76.1%. The residual activity (PRKG1 (human)) was 96.7% and 100%, the residual activity (EPHB1 (human)) was 95.4% and the residual activity (MAPK14 (human)) was 103%. For the same compound, the residual activity (SGK2 (human)) was 101%, the residual activity (PAK2 (human)) was 94.8% and the residual activity (BRSK2 (human)) was 79.3%. It also gave a residual activity (SRPK3 (human)) of 98.2%, a residual activity (MAPK12 (human)) of 93.6% and a residual activity (AURKA (human)) of 95.3%. It also gave a residual activity (PHKG2 (human)) of 97%, a residual activity (FGFR2 (human)) of 92.7% and a residual activity (ALK (human)) of 97%. For the same compound, the residual activity (FGFR3 (human)) was 98.2%, the residual activity (WNK2 (human)) was 119% and the residual activity (CAMK1G (human)) was 101%. The residual activity (WEE1 (human)) was 92%, the residual activity (AKT1 (human)) was 101% and the residual activity (TTK (human)) was 102%.
Compound `O=C1NC(=O)c2c1c1c3ccccc3[nH]c1c1[nH]c3cc(Br)ccc3c21` has a residual activity (STK39 (human)) of 90.7%, a residual activity (DMPK (human)) of 104% and a residual activity (HCK (human)) of 92.4%. The residual activity (DYRK1A (human)) was 84%, the residual activity (PRKCE (human)) was 95.7% and the residual activity (PASK (human)) was 86.3%. It also gave a residual activity (NTRK1 (human)) of 82.2%, a residual activity (STK16 (human)) of 87.2% and a residual activity (CDK3 CCNE1 (human)) of 88.1%. It also gave a residual activity (GRK6 (human)) of 108%, a residual activity (CAMKK2 (human)) of 48.1% and a residual activity (ABL1 (human)) of 83.3%. For the same compound, the residual activity (EPHB3 (human)) was 91.9%, the residual activity (CDC42BPA (human)) was 97.5% and the residual activity (FLT1 (human)) was 56.5%. It also gave a residual activity (MAP3K11 (human)) of 14%, a residual activity [1] of 110% and a residual activity (NUAK1 (human)) of 14.3%. For the same compound, the residual activity (CDK5 CDK5R1 p25 (human)) was 43.4%, the residual activity (MARK2 (human)) was 40.4% and the residual activity (SLK (human)) was 90.9%. For the same compound, the residual activity (RAF1 (human)) was 97.8%, the residual activity (NEK7 (human)) was 96.8% and the residual activity (KDR (human)) was 67.9%. For the same compound, the residual activity (PRKG1 (human)) was 76% and 90.7%, the residual activity (EPHB1 (human)) was 95.5% and the residual activity (MAPK14 (human)) was 90.6%. It also gave a residual activity (SGK2 (human)) of 68.5%, a residual activity (PAK2 (human)) of 101% and a residual activity (BRSK2 (human)) of 35.6%. For the same compound, the residual activity (SRPK3 (human)) was 89.2%, the residual activity (MAPK12 (human)) was 100% and the residual activity (AURKA (human)) was 60.7%. It also gave a residual activity (PHKG2 (human)) of 94.8%, a residual activity (FGFR2 (human)) of 98.4% and a residual activity (ALK (human)) of 94%. For the same compound, the residual activity (FGFR3 (human)) was 86.2%, the residual activity (WNK2 (human)) was 92.1% and the residual activity (CAMK1G (human)) was 94.5%. It also gave a residual activity (WEE1 (human)) of 74.6%, a residual activity (AKT1 (human)) of 101% and a residual activity (TTK (human)) of 98.7%.
`COc1cc2ncnc(Nc3ccc(O)c(Br)c3)c2cc1OC` gave a residual activity (STK39 (human)) of 87.4%, a residual activity (DMPK (human)) of 101% and a residual activity (HCK (human)) of 52.2%. For the same compound, the residual activity (DYRK1A (human)) was 97.8%, the residual activity (PRKCE (human)) was 93.2% and the residual activity (PASK (human)) was 57.9%. It also gave a residual activity (NTRK1 (human)) of 96.4%, a residual activity (STK16 (human)) of 104% and a residual activity (CDK3 CCNE1 (human)) of 93.5%. The residual activity (GRK6 (human)) was 104%, the residual activity (CAMKK2 (human)) was 92.4% and the residual activity (ABL1 (human)) was 79.4%. For the same compound, the residual activity (EPHB3 (human)) was 88.1%, the residual activity (CDC42BPA (human)) was 96.9% and the residual activity (FLT1 (human)) was 83.4%. The residual activity (MAP3K11 (human)) was 83.7%, the residual activity [1] was 81.5% and the residual activity (NUAK1 (human)) was 68.2%. The residual activity (CDK5 CDK5R1 p25 (human)) was 98.4%, the residual activity (MARK2 (human)) was 94.5% and the residual activity (SLK (human)) was 50.3%. For the same compound, the residual activity (RAF1 (human)) was 92.1%, the residual activity (NEK7 (human)) was 101% and the residual activity (KDR (human)) was 69.6%. For the same compound, the residual activity (PRKG1 (human)) was 87.1% and 88.9%, the residual activity (EPHB1 (human)) was 81.4% and the residual activity (MAPK14 (human)) was 87.3%. The residual activity (SGK2 (human)) was 95.1%, the residual activity (PAK2 (human)) was 90.6% and the residual activity (BRSK2 (human)) was 80.1%. It also gave a residual activity (SRPK3 (human)) of 92.4%, a residual activity (MAPK12 (human)) of 92.8% and a residual activity (AURKA (human)) of 83.1%. The residual activity (PHKG2 (human)) was 98%, the residual activity (FGFR2 (human)) was 95.9% and the residual activity (ALK (human)) was 12.5%. The residual activity (FGFR3 (human)) was 98.8%, the residual activity (WNK2 (human)) was 102% and the residual activity (CAMK1G (human)) was 103%. For the same compound, the residual activity (WEE1 (human)) was 92.5%, the residual activity (AKT1 (human)) was 94% and the residual activity (TTK (human)) was 105%.
Work on `N#CCCc1ccc2c(c1)-c1[nH]c3ccc([N+](=O)[O-])cc3c1CC(=O)N2` yielded a residual activity (STK39 (human)) of 96.4%, a residual activity (DMPK (human)) of 89.8% and a residual activity (HCK (human)) of 63.8%. It also gave a residual activity (DYRK1A (human)) of 85.9%, a residual activity (PRKCE (human)) of 95.4% and a residual activity (PASK (human)) of 96.9%. For the same compound, the residual activity (NTRK1 (human)) was 115%, the residual activity (STK16 (human)) was 87% and the residual activity (CDK3 CCNE1 (human)) was 39.7%. The residual activity (GRK6 (human)) was 91.5%, the residual activity (CAMKK2 (human)) was 86.8% and the residual activity (ABL1 (human)) was 47.8%. The residual activity (EPHB3 (human)) was 102%, the residual activity (CDC42BPA (human)) was 73.1% and the residual activity (FLT1 (human)) was 99.7%. For the same compound, the residual activity (MAP3K11 (human)) was 18.4%, the residual activity [1] was 91.9% and the residual activity (NUAK1 (human)) was 14.1%. It also gave a residual activity (CDK5 CDK5R1 p25 (human)) of 5.79%, a residual activity (MARK2 (human)) of 65.5% and a residual activity (SLK (human)) of 87.2%. The residual activity (RAF1 (human)) was 104%, the residual activity (NEK7 (human)) was 87.4% and the residual activity (KDR (human)) was 75.5%. The residual activity (PRKG1 (human)) was 88.4% and 99.3%, the residual activity (EPHB1 (human)) was 99.1% and the residual activity (MAPK14 (human)) was 91.8%. For the same compound, the residual activity (SGK2 (human)) was 114%, the residual activity (PAK2 (human)) was 55.6% and the residual activity (BRSK2 (human)) was 42%. The residual activity (SRPK3 (human)) was 94.6%, the residual activity (MAPK12 (human)) was 98.9% and the residual activity (AURKA (human)) was 78.7%. It also gave a residual activity (PHKG2 (human)) of 99.1%, a residual activity (FGFR2 (human)) of 93.2% and a residual activity (ALK (human)) of 78.8%. For the same compound, the residual activity (FGFR3 (human)) was 90.3%, the residual activity (WNK2 (human)) was 112% and the residual activity (CAMK1G (human)) was 103%. For the same compound, the residual activity (WEE1 (human)) was 100%, the residual activity (AKT1 (human)) was 111% and the residual activity (TTK (human)) was 71.7%.
